Experimental data: patent publication US5635514A, “Heteroaralkyl and heteroarylthioalkyl thiophenolic compounds as 5-lipoxgenase inhibitors” (G. D. Searle & Company, priority 1994, dated 1997)

Legend:
[1] = test system: TPA-induced ear inflammation (Mouse, Ear); test: Tetradecanoylphorbol Acetate (TPA) Assay (TPA-induced mouse ear inflammation); type: in vivo; conditions: 50 mpk, ip + 120 minute; for TPA Edema (% Inhibition): ear thickness
Experimental: The compounds of the present invention were evaluated with respect to 5-lipoxygenase inhibition according to the Tetradecanoylphorbol Acetate (TPA) Assay which is described in Rao et al., "Comparative Evaluation of Arachidonic Acid (AA)--And Tetradecanoylphorbol Acetate (TPA)-Induced Dermal Inflammation." Inflammation, Vol. 17, No. 6, 723-741 (1993), which is incorporated herein by reference.
In this study, selective 5-lipoxygenase inhibitors, such as zileuton, MK-886, LTB4 and LTD4 receptor […] were evaluated in acute inflammatory responses elicited by the topical application of TPA to the ears of mice. The increases in edema and myeloperoxidase (MPO) were used as readouts of inflammatory responses.
Animals. Female BALB/c mice (17-25 g; Jackson Labs, Bar Barbor, Me.) or male Swiss Webster mice (Charles River, Portage, Mich.) were used in the studies. The animals were housed in a vivarium with a 12-hour lighting schedule (0600-1800 hours on) with free access to food and water. Housing and experimental procedures were conducted according to institutionally approved (Monsanto, St. Louis, Mo. and National Institute of Health) guidelines.
Drugs and Reagents. Hexadecyltrimethylammonium bromide (HTAB), and TPA were purchased from Sigma Chemical Co. (St. Louis, Mo.). Human polymorphonuclear leukocyte myeloperoxidase (20 units/mg protein) was obtained from Calbiochem (San Diego, Calif.). One unit of MPO was defined as the activity of the enzyme that oxidizes 1 μmol of hydrogen peroxide per minute at 25° C.
TPA Inflammation Model. […] Four hours following the application of TPA, increases in ear thickness were measured and ears were excised for MPO measurements.
Measurement of MPO. […] The rate of change of absorbance was monitored in kinetic mode by a plate reader (Molecular Devices, Menlo Park, Calif.). Levels of MPO in lavage samples were determined from the calibration curves using human neutrophil MPO as the reference standard. The levels of MPO were expressed as milliunits per ear. […]

[2] = test system: Thromboxane production by calcium ionophore stimulated human blood; test: Human Whole Blood Assay, thromboxane production (calcium ionophore stimulated); type: cell-based; conditions: calcium ionophore A23187, thromboxane
Experimental: (§1) (c) LTB4 and Thromboxane Production by Calcium Ionophore Stimulated Human Blood--Human Whole Blood LTB4 Assay
(§2) The compounds of the present invention were evaluated with respect to 5-lipoxygenase inhibition according to the Human Whole Blood LTB4 Assay described below.
(§3) Human whole blood was collected in heparin containing Vacutainer brand tubes. The blood was diluted with RPMI-1640 cell culture media [1:4] (Gibco, Grand Island, N.Y.) and 200 microliters were added per well in 96 well microtiter plates. Compounds of the present invention diluted in dimethylsulfoxide were added to the blood and allowed to incubate for 15 minutes at 37° C. in a humidified incubator. Calcium ionophore A23187 [20 mcg/ml final concentration, Sigma Chemical Co., St. Louis, Mo.] was added, and the incubation was continued for 10 minutes. The incubation was terminated by centrifugation [833 g, 10 minutes at 4° C.]. Supernatants were analyzed for LTB4 and thromboxane by commercially available enzyme-linked immunoassays [Caymen Chemical Co., Ann Arbor, Mich.]. Test compounds which inhibit 5-lipoxygenase in this assay inhibit the formation of LTB4 and cause reduced levels of this agent in the supernatant.
(§4) The results of this assay are expressed in terms of activity with respect to 5-lipoxygenase inhibition as an IC50 value (50% inhibitory concentration).

[3] = molecular target: T1, Human recombinant 5-lipoxygenase (Homo sapiens, UniProt P09917); test: Recombinant 5-Lipoxygenase Inhibition Assay; type: biochemical; conditions: 25° C., 8 minutes, absorbance at 240 nm
T1 construct: made in house; host or cells: E. coli
T1 sequence (P09917 1-674): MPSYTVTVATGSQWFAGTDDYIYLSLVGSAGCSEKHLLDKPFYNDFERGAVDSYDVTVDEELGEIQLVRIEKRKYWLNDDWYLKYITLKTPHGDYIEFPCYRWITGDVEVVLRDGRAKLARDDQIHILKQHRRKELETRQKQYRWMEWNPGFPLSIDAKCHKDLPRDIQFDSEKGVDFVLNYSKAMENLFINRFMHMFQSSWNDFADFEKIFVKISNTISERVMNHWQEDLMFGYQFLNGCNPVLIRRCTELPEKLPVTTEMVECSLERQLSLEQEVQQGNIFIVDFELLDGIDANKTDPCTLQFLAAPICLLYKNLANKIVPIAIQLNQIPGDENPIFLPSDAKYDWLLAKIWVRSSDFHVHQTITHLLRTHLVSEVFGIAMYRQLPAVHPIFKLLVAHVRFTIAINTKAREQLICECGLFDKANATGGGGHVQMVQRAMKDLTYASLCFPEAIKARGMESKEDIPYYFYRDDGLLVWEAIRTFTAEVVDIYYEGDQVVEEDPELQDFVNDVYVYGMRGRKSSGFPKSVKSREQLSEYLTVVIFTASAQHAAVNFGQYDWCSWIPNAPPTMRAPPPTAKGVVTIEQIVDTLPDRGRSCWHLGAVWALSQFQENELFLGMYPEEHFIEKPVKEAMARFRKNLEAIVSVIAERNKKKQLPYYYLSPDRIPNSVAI
Experimental: The compounds of the present invention were evaluated with respect to 5-lipoxygenase inhibition according to the Recombinant 5-Lipoxygenase Inhibition Assay described below.
Human 5-lipoxygenase expressed in E. coli as a soluble protein was prepared in the manner described by M. Noguchi et al., "Expression of Human 5-Lipoxygenase cDNA in E. coli," FEBS Letters, Vol. 249, No. 2, 267-270 (1989), which is incorporated herein by reference. The human 5-lipoxygenase was partially purified by ion exchange chromatography and stored in 50 mM Tris-HCl buffer (pH 8.1) containing 150 mM NaCl, 2 mM EDTA, 2 mM DTT, and 50% glycerol at -70° C. before use.
The following solutions were prepared as indicated: CaCl2 /ATP, 12.5 mM CaCl2 and 5 mM ATP in H2 O; arachidonic acid, 4 mM in ethanol; potassium phosphate buffer, 50 mM potassium phosphate and 0.1 mM EDTA, pH 7.2. Test compounds were first prepared at 10 mM in DMSO and further diluted to desirable concentrations with DMSO.
The assay was carried out in a quartz cuvette to which 15 μl CaCl2 /ATP, 7.5 μl arachidonic acid, 7.5 μl ethanol or test compound, and 710 μl potassium phosphate buffer, in that order, were added and mixed. The mixture was prewarmed to 25° C. The enzymatic reaction was started by adding 10 μl of 5-lipoxygenase enzyme (~0.2 mg protein), and the formation of the reaction product 5-HPETE/5-HETE at 25° C. for 8 minutes was determined by measuring the increase in the absorbance at 240 nm using a Beckman DU-7 spectrophotometer.
The results for this assay are expressed in terms of activity with respect to 5-lipoxygenase inhibition as an IC50 value (50% inhibitory concentration).

[4] = test system: LTB4 production by calcium ionophore stimulated human blood; test: Human Whole Blood LTB4 Assay (calcium ionophore stimulated LTB4 production); type: cell-based; conditions: calcium ionophore A23187, LTB4
Experimental: as §1, §2, §3, §4

| SMILES | TPA Edema (% Inhibition) [1] [%] | IC50 [2] [µM] | IC50 [3] [nM] | IC50 [4] [µM] | TPA MPO (% Inhibition) ([1]; myeloperoxidase) [%] |
| --- | --- | --- | --- | --- | --- |
| CC(C)(C)c1cc(SCC(O)Cn2ccc3ncnc-3c2)cc(C(C)(C)C)c1O (racemic) [Compound 27, (±) 2,6-bis(1,1-dimethylethyl)-4-[[2-hydroxy-3-(5H-imidazo[4,5-c]pyridin-5-yl]propylthio]phenol Hydrate] | 46 | 37.3 | 1100 ± 230 | 7.42 | – |
| CC(C)(C)c1cc(SCCCn2ccc3ncnc-3c2)cc(C(C)(C)C)c1O [Compound 5, 2,6-bis(1,1-dimethylethyl)-4-[[3-(5H-imidazo-[4,5-c]pyridin-5-yl)propyl]thio]phenol] | 42 | 50 | 570 ± 70 | 13.3 | 24 |
| CC(C)(C)c1cc(SCCn2ccc3ncnc-3c2)cc(C(C)(C)C)c1O [Compound 8, 2,6-bis(1,1-dimethylethyl)-4-[[2-(5H-imidazo-[4,5-c]pyridin-5-yl)ethyl]thio]phenol Hydrate] | – | – | 4480 ± 360 | – | – |
| CC(C)(C)c1cc(SCCCCn2ccc3ncnc-3c2)cc(C(C)(C)C)c1O [Compound 14, 2,6-bis(1,1-dimethylethyl)-4-[[4-(5H-imidazo-[4,5-c]pyridin-5-yl)butyl]thiophenol Hydrate] | – | – | 410 ± 20 | – | – |
| CC(C)(C)c1cc(SCCCn2cnc3ccncc32)cc(C(C)(C)C)c1O [Compound 15, 2,6-bis(1,1-dimethylethyl)-4-[[3-(1H-imidazo[5,4-c]pyridin-1-yl]propyl]thio]phenol] | – | 14.4 | 490 ± 40 | 6.27 | – |
| CC(C)(C)c1cc(SCCCn2cnc3cnccc32)cc(C(C)(C)C)c1O [Compound 16, 2,6-bis(1,1-dimethylethyl)-4-[[3-(1H-imidazo[4,5-c]pyridin-1-yl)propyl]thio]phenol] | – | – | 340 ± 100 | – | – |
| CC(C)(C)c1cc(SCCCn2cnc3cccnc32)cc(C(C)(C)C)c1O [Compound 18, (2,6-bis(1,1-dimethylethyl)-4-[[3-(1H-imidazo[5,4-b]pyridin-1-yl)propyl]thio]phenol Hydrate] | – | – | 320 ± 20 | – | – |
| CC(C)(C)c1cc(SCCCn2cnc3ncccc32)cc(C(C)(C)C)c1O [Compound 19, 2,6-bis(1,1-dimethylethyl)-4-[[3-1H-imidazo[4,5-b]pyridin-1-yl)propyl]thio]-phenol Hydrate] | – | > 39 | 360 ± 70 | 6.62 | – |
| CC(C)(C)c1cc(SCCCn2cnc3ccccc32)cc(C(C)(C)C)c1O [Compound 21, 2,6-bis(1,1-dimethylethyl)-4-[[3-(1H-benzimidazol-1-yl)propyl]thio]phenol] | – | 18.6 | 140 ± 20 | 2.26 | – |
| CC(C)(C)c1cc(SCCCn2ccc3ccccc32)cc(C(C)(C)C)c1O [Compound 24, 2,6-bis(1,1-dimethylethyl)-4-[[3-(1H-indol-1-yl)propyl]thio]phenol Hydrate] | – | – | 480 ± 90 | – | – |
| CC(C)(C)c1cc(SCCSc2nc3ccccc3o2)cc(C(C)(C)C)c1O [Compound 26, 2,6-bis(1,1-dimethylethyl)-4-[[2-[(1,3-benzoxazol-2-yl)thio]ethyl]thio]phenol Hydrate] | – | 9.1 | 930 ± 160 | 11.1 | – |
| CC(C)(C)c1cc(SCc2nc3cccnc3[nH]2)cc(C(C)(C)C)c1O [Compound 29, 2,6-bis(1,1-dimethylethyl)-4-[[(3H-imidazo-[4,5-b]pyridin-2-yl)methyl]thio]phenol] | – | 50 | 1800 ± 300 | 20.1 | – |
